{
  "source": "patent US11795197B2",
  "about": "“Peptide compositions for immuno-oncology molecular imaging and targeted drug delivery” (Cedars-Sinai Medical Center, priority 2017, dated 2023)",
  "key": {"[1]": {"test_system": "BT474 cells", "experiment": "Cellular toxicity of LDLLDL peptide by microscopy", "assay_type": "cell-based, human", "conditions": "0.1-1000 μM/mL, up to highest concentration tested", "from_the_text": "(§1) A FPR-targeted peptide and its optical imaging probe were designed and synthesized: The inventors synthesized an FPR-targeted peptide agent Leu-Asp-Leu-Leu-Asp-Leu (LDLLDL: SEQ ID NO:1), which is an antagonist peptide for FPR1 receptor. The inventors have also developed an NIR optical imaging probe to evaluate the targeting capability. Specifically, the base peptide ligand was synthesized by the solid-phase method. After the peptide sequence was assembled on resin, the ivDDE protecting group was removed from the w-amino group of the lysine by treatment with hydrazine. The inventors tested varying concentrations (0.1-1000 μM/mL) of LDLLDL (SEQ ID NO:1) peptide in all four breast cancer cell types (BT474, BT549, MDA-MB-231 and MCF-7) to assess cellular toxicity."}, "[2]": {"test_system": "BT549 cells", "experiment": "Cellular toxicity of LDLLDL peptide by microscopy", "assay_type": "cell-based, human", "conditions": "0.1-1000 μM/mL, up to highest concentration tested", "from_the_text": "as §1"}, "[3]": {"test_system": "MCF-7 cells", "experiment": "Cellular toxicity of LDLLDL peptide by microscopy", "assay_type": "cell-based, human", "conditions": "0.1-1000 μM/mL, up to highest concentration tested", "from_the_text": "as §1"}, "[4]": {"test_system": "MDA-MB-231 cells", "experiment": "Cellular toxicity of LDLLDL peptide by microscopy", "assay_type": "cell-based, human", "conditions": "0.1-1000 μM/mL, up to highest concentration tested", "from_the_text": "as §1"}, "[5]": {"experiment": "Solubility of the peptide", "assay_type": "physicochemical"}, "[6]": {"test_system": "BT474 cells", "experiment": "Cellular uptake of FPR peptide by near infrared fluorescence imaging", "assay_type": "cell-based, human", "method": "(§2) To study the ability of the FPR peptide to internalize and fluorescently labeled cancer and macrophage cells, various breast cancer cell lines were treated with the peptide (5 uMol/uL) for 4 hrs. […] Fluorescence uptake was not observed in the normal human mammary epithelial cells (HEMC-control), as expected, since there is no expression of FPR receptor for HEMC.\n(§3) LDLLDL-Cy7 ([SEQ ID NO:1]-Cy7) was used to treat five cancer cell lineages (MDA-MB-231, BT549, HCC1500, BT474, and MCF-7) and normal human mammary epithelial cell (HEMC) for 3 hrs at the concentrations of 5 and 10 μM/mL. After washing 3 times with cold PBS, all cells were imaged using near infrared fluorescence imaging and target specificity of the FPR peptide was evaluated."}, "[7]": {"test_system": "HCC1500 cells", "experiment": "Cellular uptake of FPR peptide by near infrared fluorescence imaging", "assay_type": "cell-based, human", "method": "as §2, §3"}, "[8]": {"test_system": "MCF-7 cells", "experiment": "Cellular uptake of FPR peptide by near infrared fluorescence imaging", "assay_type": "cell-based, human", "conditions": "3 hrs, 5 and 10 μM/mL, FIG. 4", "method": "as §2, §3"}, "[9]": {"test_system": "MDA-MB-231 cells", "experiment": "Cellular uptake of FPR peptide by near infrared fluorescence imaging", "assay_type": "cell-based, human", "conditions": "3 hrs, 5 and 10 μM/mL, FIG. 4", "method": "as §2, §3"}, "[10]": {"test_system": "macrophage cell line RAW264.7", "experiment": "Cellular uptake of FPR peptide by near infrared fluorescence imaging", "assay_type": "cell-based", "conditions": "peptide 5 uMol/uL, 4 hrs", "method": "as §2"}, "[11]": {"test_system": "normal human mammary epithelial cell (HEMC)", "experiment": "Cellular uptake of FPR peptide by near infrared fluorescence imaging", "assay_type": "cell-based", "method": "as §2, §3"}, "[12]": {"test_system": "human TNBC cells", "experiment": "Target specificity of the FPR peptide by near infrared fluorescence imaging", "assay_type": "cell-based", "conditions": "3 hrs, 5 and 10 μM/mL", "method": "as §3"}, "[13]": {"test_system": "MDA-MB-231 breast cancer tumor xenograph", "experiment": "In vivo fluorescence imaging and organ biodistribution in tumor xenograph mice", "method": "FIG. 5 depicts in accordance with various embodiments of the invention, in vivo fluorescent image of xenograft mice after 6 hours of tail vein injection. Mice were injected with fluorescent dye (Cy7) only (left panel), and peptide-Cy7 (right panel).\nFIG. 6 depicts in accordance with various embodiments of the invention, the biodistribution in tumor-bearing mice after 7 hours of tail vein injection. Mice were injected with fluorescent dye only (left panel), and peptide LDLLDL-Cy7 (right panel)([SEQ ID NO:1]-Cy7).\nTen mice were implanted with breast cancer cells (MDA-MB-231) to develop breast cancer tumor xenograph models. The tumors were allowed to grow for 4 weeks before the mice were injected with 30 ul of peptide (2 nMoles). The animals were imaged using mouse fluorescence imaging after 1, 2, 3, 4, and 6 hours. FIG. 5 show the results of one of those mice experiments. […] After 7 hours the animals were sacrificed and organs extracted and imaged."}, "[14]": {"test_system": "E0771 breast cancer tumor xenograph", "experiment": "In vivo fluorescence imaging in tumor xenograph mice", "set-up": "species or system C57BL/6 mice", "conditions": "30 ul of peptide (2 nMoles), within 6 hr, rear bilateral flank tumors", "method": "(§4) FIG. 9 depicts one of 10 mice experiments in accordance with various embodiments. Ten mice (C57BL/6 mice) were implanted with breast cancer cells (E0771) to develop breast cancer tumor xenograph model. The tumors were allowed to grow for 4 weeks before the mice were injected with 30 ul of peptide (2 nMoles). The animals were imaged using mouse fluorescence imaging after 1, 2, 3, 4, 6 hr."}, "[15]": {"test_system": "4T1 breast cancer tumor xenograph", "experiment": "In vivo fluorescence imaging in tumor xenograph mice", "set-up": "species or system Balb/c mice", "conditions": "30 ul of peptide (2 nMoles), within 6 hr, mammary gland tumors", "method": "as §4, with “10” for “9”, “(Balb/c” for “(C57BL/6”, “(4T1)” for “(E0771)”"}, "[16]": {"test_system": "xenograft breast cancer model with ANXA1 overexpression", "experiment": "PET uptake in breast cancer xenograft model with ANXA1 overexpression", "assay_type": "in vivo, mice", "from_the_text": "(§5) Without being bound to any particular theory, the inventors believe that ANXA1 is associated with tumorigenesis and progression, and the synthesized peptide imaging probe can be used as a surrogate for monitoring the tumor expression with ANXAL. To characterize target specificity, the inventors developed the breast cancer xenograft model with ANXA1 overexpression as well as an ANXA1-knockdown model using a shRNA lentiviral vector technique. […] The inventors assess the pharmacokinetic profile and tumor specific targeting potency of the new imaging probe, and its effectiveness in evaluation of tumorigenesis and progression of aggressive breast cancer. See FIG. 8 for experimental design.\nBreast cancer xenograft model: In vitro studies described above identified the expression of ANXA1/FPR1 for all tested cells. […] Body weight and tumor volume is measured weekly. […]\nBlood clearance and biodistribution: i) Blood clearance: After anesthesia (isoflurane 2-3%), 2 groups of 5 mice each are injected with radiolabeled LDLLDL-^64Cu ([SEQ ID NO:1]-^64Cu) (˜5 μCi) via tail vein. Retro-orbital blood samples (25 μL) are collected at various time points such as 5, 15, 30, 60, 120, 240 min and 24 h after injection and radioactivity of all samples are counted in a gamma counter (Perkin-Elmer). […] At 1 h, 2 h, 4 h, 24 h after injection, mice are scanned by small-animal PET followed by tissue radioactivity assay. […]"}, "[17]": {"test_system": "ANXA1-knockdown breast cancer xenograft", "experiment": "PET uptake in ANXA1-knockdown xenograft model", "assay_type": "in vivo, mice", "from_the_text": "as §5, with “design. […]” for “design.”\nEvaluation of tumor uptake in ANXA1 knockdown xenograft model: The inventors evaluate the effects of ANXA1 in regulating tumorigenesis and progression using the ANXA1-KD/control breast cancer xenograft model. […] Tumor growth and/or progression of the disease is monitored up to 8 weeks after cell inoculation. […] On completion of PET/CT at 24 h after injection, a tissue radioactivity assay is performed, and tissue radioactivity is calculated and expressed as decay-corrected percentage injected dose per gram of tissue (% ID/g). The tumor radioactivity and size are compared between ANXA1-KD tumor and ANXA1-SCR tumor. […]"}, "[18]": {"test_system": "tumor-expressing ANXA1", "experiment": "In vitro target binding specificity in breast cancer cell models", "assay_type": "cell-based", "conditions": "human breast cancer cell models", "method": "In vitro target specificity binding is evaluated in two steps: Step 1: Characterize the ANXA1/FPR1 expression baseline by examining expression levels of FPR1 and ANXA1 in five human breast cancer cell lines, MDA-MB-231, HCC1500, BT549, MCF-7, BT474, and HEMC. Obtaining protein expression by performing IHC staining using the anti-ANXA1 and anti-FPR1 antibody. The cell lines with positive staining are identified. Further, the […] of ANXA1 and FPR1 are evaluated by western blotting and qRT-PCR. The correlation between FPR1 and ANXA1 are validated, and the cells with highest FPR1 and ANXA1 expression are selected for further in vivo study. The results establish the baseline of expression of ANXA1 and FPR1 in the tested breast cancer cell lines.\nStep 2: Characterization of the binding specificity of the LDLLDL-^64Cu ([SEQ ID NO:1]-^64Cu) is tested on the cell lines described above. The cells are cultured in two groups of Petri dishes. […] The suspended cells are measured for radioactivity using a gamma-counter. Disintegrations per minute per cell are calculated and reported as the peptide uptake for each cell line. […] The cell-associated radioactivity is measured, and the binding affinity is determined by the Grafit software (Erithacus, Inc). […]"}, "[19]": {"conditions": "organs extracted after 7 hours, FIG. 6"}},
  "note": "Residues, ends and D or L forms follow the SMILES beside them. No end group written: not given here. K(CB-TE2A) = lysine carrying the CB-TE2A chelator (for 64Cu); Cy7 = near-infrared fluorescent dye for NIRF imaging; PEGn = polyethylene glycol (n units) spacer",
  "data": [
    {"compound": "CC(C)C[C@H](NC(=O)[C@H](CC(=O)O)NC(=O)[C@H](CC(C)C)NC(=O)[C@H](CC(C)C)NC(=O)[C@H](CC(=O)O)NC(=O)[C@@H](N)CC(C)C)C(=O)O", "note": "[LDLLDL, Leu-Asp-Leu-Leu-Asp-Leu] (H-LDLLDL-OH; N-terminus and C-terminus assumed)", "values": [
      {"measurement": "cellular toxicity (cell death by microscopy)", "setting": "[1]", "result": "Apparent cell death could not be observed"},
      {"measurement": "cellular toxicity (cell death by microscopy)", "setting": "[2]", "result": "Apparent cell death could not be observed"},
      {"measurement": "cellular toxicity (cell death by microscopy)", "setting": "[3]", "result": "Apparent cell death could not be observed"},
      {"measurement": "cellular toxicity (cell death by microscopy)", "setting": "[4]", "result": "Apparent cell death could not be observed"},
      {"measurement": "solubility", "setting": "[5]", "result": "superior"}
    ]},
    {"compound": "LDLLDL-Cy7", "values": [
      {"measurement": "uptake of LDLLDL-Cy7", "setting": "[6]; 3 hrs, 5 and 10 μM/mL, FIG. 4", "result": "weak uptake"},
      {"measurement": "cell associated fluorescence", "setting": "[6]; peptide 5 uMol/uL, 4 hrs, Her2 line", "result": "cell associated fluorescence"},
      {"measurement": "uptake of LDLLDL-Cy7", "setting": "[7]; 3 hrs, 5 and 10 μM/mL, FIG. 4", "result": "substantial uptake"},
      {"measurement": "cell associated fluorescence", "setting": "[7]; peptide 5 uMol/uL, 4 hrs, ER-positive luminal line", "result": "cell associated fluorescence"},
      {"measurement": "uptake of LDLLDL-Cy7", "setting": "[8]", "result": "weak uptake"},
      {"measurement": "uptake of LDLLDL-Cy7", "setting": "[9]", "result": "substantial uptake"},
      {"measurement": "uptake of the peptide", "setting": "[10]", "result": "substantial uptake"},
      {"measurement": "fluorescence uptake of LDLLDL-Cy7", "setting": "[11]; 3 hrs, 5 and 10 μM/mL, FIG. 4", "result": "no fluorescence uptake"},
      {"measurement": "fluorescence uptake", "setting": "[11]; peptide 5 uMol/uL, 4 hrs, control without FPR expression", "result": "not observed"},
      {"measurement": "binding affinity", "setting": "[12]", "result": "High binding affinity"},
      {"measurement": "fluorescence in the rest of the organs", "setting": "[13]; [19]", "result": "no significant fluorescence"},
      {"measurement": "uptake in the tumors (extracted organs imaged)", "setting": "[13]; [19]", "result": "strong uptake"},
      {"measurement": "fluorescence in the implanted tumors", "setting": "[13]; tail vein injection, 6 hours after injection, FIG. 5", "result": "intense fluorescence"},
      {"measurement": "fluorescence in the implanted tumors", "setting": "[14]", "result": "intense fluorescence"},
      {"measurement": "fluorescence in the implanted tumors", "setting": "[15]", "result": "intense fluorescence"}
    ]},
    {"compound": "LDLLDL-^64Cu (LDLLDL-{PEGn-K(CB-TE2A)}; also: 64Cu chelated by CB-TE2A)", "values": [
      {"measurement": "uptake in PET image studies", "setting": "[16]", "result": "significantly high uptake"},
      {"measurement": "uptake of the peptide", "setting": "[17]", "result": "reduced uptake"},
      {"measurement": "targeting specificity and sensitivity", "setting": "[18]", "result": "excellent specificity and sensitivity"}
    ]}
  ]
}
